Data from the supplement of paper PMC10307832.

What was measured:
Assay in all cases: relative viability (nuclei count vs DMSO), 5 days (fraction); higher = more cells survive
[1] = compound: CCC1=CN=CN=C1N2CCN(CC2)CC3=NC4=C(N3)C=C(C=C4)C(F)(F)F + COc1cc2c(Oc3ccc(NC(=O)C4(C(=O)Nc5ccc(F)cc5)CC4)cc3F)ccnc2cc1OCCCN1CCOCC1 [Foretinib] (partner 0.25 µM)
How it was run: (§1)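 Values are medians from duplicate plates. Each reflects relative viability, defined as the nuclei count of treated wells over that of vehicle wells. Lung cancer cell lines in 1536-well plates were pin-tool dosed one day after seeding with one drug alone or with a fixed anchor-drug dose plus five library-drug doses (not always all listed) in √10 steps, then fixed, stained and imaged at 4× after 5 days.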

[2] = compound: CCC1=CN=CN=C1N2CCN(CC2)CC3=NC4=C(N3)C=C(C=C4)C(F)(F)F + CS(=O)(=O)CCNCc1ccc(-c2ccc3ncnc(Nc4ccc(OCc5cccc(F)c5)c(Cl)c4)c3c2)o1 [Lapatinib] (partner 2 µM)
How it was run: as §1

[3] = compound: CCn1c(-c2nonc2N)nc2cnc(Oc3cccc(NC(=O)c4ccc(OCCN5CCOCC5)cc4)c3)cc21 + Cc1cc(Nc2cc(N3CCN(C)CC3)nc(Sc3ccc(NC(=O)C4CC4)cc3)n2)n[nH]1 [Tozasertib] (partner 0.1 µM)
How it was run: as §1

[4] = compound: CCn1c(-c2nonc2N)nc2cnc(Oc3cccc(NC(=O)c4ccc(OCCN5CCOCC5)cc4)c3)cc21 + Nc1ncn([C@H]2C[C@H](O)[C@@H](CO)O2)c(=O)n1 [Decitabine] (partner 2 µM)
How it was run: as §1

| Cell Line | relative viability ([1]; first compound 0.04 µM) | relative viability ([1]; first compound 0.1265 µM) | relative viability ([1]; first compound 0.4 µM) | relative viability ([1]; first compound 1.265 µM) | relative viability ([1]; first compound 4 µM) | relative viability ([2]; first compound 0.04 µM) | relative viability ([2]; first compound 0.1265 µM) | relative viability ([2]; first compound 0.4 µM) | relative viability ([2]; first compound 1.265 µM) | relative viability ([2]; first compound 4 µM) | relative viability ([3]; first compound 0.04 µM) | relative viability ([3]; first compound 0.1265 µM) | relative viability ([3]; first compound 0.4 µM) | relative viability ([3]; first compound 1.265 µM) | relative viability ([3]; first compound 4 µM) | relative viability ([4]; first compound 0.04 µM) | relative viability ([4]; first compound 0.1265 µM) | relative viability ([4]; first compound 0.4 µM) | relative viability ([4]; first compound 1.265 µM) | relative viability ([4]; first compound 4 µM) |
| --- | --- | --- | --- | --- | --- | --- | --- | --- | --- | --- | --- | --- | --- | --- | --- | --- | --- | --- | --- | --- |
| 201T | 1.21 | 1.07 | 1.09 | 1.02 | 1.07 | 1.01 | 0.992 | 1.03 | 0.947 | 1.09 | 1.02 | 0.937 | 0.958 | 0.919 | 1.01 | 0.825 | 0.834 | 0.823 | 0.86 | 0.827 |
| A549 | 0.851 | 0.903 | 0.937 | 0.816 | 0.905 | 0.885 | 0.948 | 0.823 | 0.945 | 0.808 |  |  |  |  |  | 0.219 | 0.304 | 0.272 |  | 0.108 |
| A-427 | 1.03 | 1.11 | 1.03 | 0.959 | 0.534 | 0.795 | 0.991 | 1.01 | 0.911 | 1.05 | 0.189 | 0.234 | 0.228 | 0.182 | 0.186 | 0.542 | 0.517 | 0.475 | 0.278 | 0.291 |
| ABC-1 | 1.32 | 1.05 | 1.12 | 1.24 | 0.886 | 1.23 | 1.24 | 1.25 | 1.01 | 0.98 | 0.137 | 0.153 | 0.156 | 0.209 | 0.176 | 1.13 | 1.07 | 1.21 | 0.507 | 0.672 |
| BEN | 0.368 | 0.522 | 0.527 | 0.343 | 0.374 | 0.535 | 0.731 | 0.597 | 0.492 | 0.437 | 0.453 | 0.415 | 0.518 | 0.494 | 0.357 | 0.734 | 0.495 | 0.451 | 0.373 | 0.489 |
| CAL-12T | 1.08 | 1.1 | 1.07 | 1.12 | 0.968 |  | 0.667 | 0.677 | 0.707 | 0.574 | 0.433 | 0.297 | 0.28 | 0.186 | 0.189 |  |  |  |  |  |
| COR-L23 | 0.925 | 0.861 | 0.986 | 0.918 | 0.897 | 0.979 | 0.914 | 0.74 | 0.781 | 0.92 | 0.185 | 0.165 | 0.154 | 0.12 | 0.135 | 0.469 | 0.401 | 0.215 | 0.186 | 0.166 |
| COR-L 105 | 1.25 | 0.941 | 1.04 | 0.941 | 1.16 | 0.35 | 0.331 | 0.395 | 0.275 | 0.426 | 0.339 | 0.3 | 0.308 | 0.308 | 0.308 | 0.669 | 0.512 | 0.596 | 0.432 | 0.377 |
| Calu-6 | 0.91 | 0.841 | 0.889 | 0.807 | 0.782 | 1.1 | 1.11 | 1.05 | 0.988 | 1.03 |  |  |  |  |  |  |  |  |  |  |
| ChaGo-K-1 | 1.02 | 0.992 | 0.794 | 0.814 | 0.891 |  |  |  |  |  | 0.242 | 0.244 | 0.232 | 0.211 | 0.165 | 0.582 | 0.423 | 0.525 | 0.515 | 0.526 |
| EBC-1 | 0.107 | 0.0909 | 0.0948 | 0.0919 | 0.112 | 0.224 | 0.3 | 1.47 | 1.52 | 1.31 |  |  |  |  |  |  |  |  |  |  |
| EKVX | 0.748 | 0.675 | 0.753 |  | 0.779 | 0.212 | 0.198 | 0.227 | 0.174 | 0.216 | 0.423 | 0.473 | 0.46 | 0.216 | 0.265 | 0.397 | 0.381 | 0.331 | 0.35 | 0.34 |
| EMC-BAC-2 | 1 | 0.943 | 1.03 |  | 0.914 | 0.889 | 0.864 | 0.86 | 0.743 | 0.982 | 0.231 | 0.283 | 0.249 | 0.165 | 0.155 | 0.957 | 0.894 | 0.771 | 0.386 | 0.465 |
| EPLC-272H | 0.787 | 0.787 | 0.688 | 0.653 | 0.639 | 0.854 | 0.807 | 0.853 | 0.913 | 0.975 | 0.152 | 0.394 | 0.26 | 0.306 | 0.223 | 0.469 | 0.442 | 0.374 | 0.299 | 0.375 |
| H3255 | 0.828 | 0.872 | 0.894 | 0.739 | 0.776 | 0.241 | 0.238 | 0.218 | 0.234 | 0.246 | 0.758 | 0.5 | 0.706 | 0.377 | 0.325 | 0.774 | 0.594 | 0.63 | 0.403 | 0.518 |
| HARA | 0.85 | 0.952 | 0.836 |  | 0.828 | 0.894 | 0.762 | 0.687 | 0.602 | 0.866 | 0.11 | 0.0979 | 0.093 | 0.13 | 0.0876 | 0.598 | 0.665 | 0.684 | 0.283 | 0.206 |
| HCC-15 | 1.02 | 1.01 | 1.03 | 1 | 1.01 | 0.847 | 0.814 | 0.839 | 0.828 | 0.865 | 0.451 | 0.403 | 0.417 | 0.278 | 0.258 | 0.608 | 0.516 | 0.446 | 0.427 | 0.507 |
| HCC-44 |  |  |  |  |  | 0.932 | 0.956 | 0.975 | 1.05 | 0.85 | 0.841 | 0.146 | 0.373 | 0.225 | 0.188 | 0.868 | 1.06 | 0.738 | 0.728 | 0.429 |
